Results: ChEMBL document CHEMBL4118099, “Targeting Transcriptional Enhanced Associate Domains (TEADs)” (J Med Chem, 2018)

How the values were obtained:
[1] = molecular target: T1, Transcriptional enhancer factor TEF-1 (Homo sapiens, UniProt P28347); assay: Binding affinity to human GST-tagged TEAD1 (194 to 411) expressed in Escherichia coli BL21(DE3) by SPR assay
[2] = molecular target: T1, Transcriptional enhancer factor TEF-1; assay: Inhibition of human His-tagged YAP (50 to 171 residues) interaction with human GST-tagged TEAD1 (194 to 411) expressed in Escherichia coli BL21(DE3) incubated for 30 mins measured by SPR assay
[3] = molecular target: Transcriptional enhancer factor TEF-3 (Homo sapiens, UniProt Q15561); assay: Binding affinity to human His-tagged TEAD4 YBD (217 to 434 residues) expressed in Escherichia coli BL21(DE3) after 30 mins by ITC assay
Sequence of Transcriptional enhancer factor TEF-3 (Q15561 whole entry, the tested form may be a part): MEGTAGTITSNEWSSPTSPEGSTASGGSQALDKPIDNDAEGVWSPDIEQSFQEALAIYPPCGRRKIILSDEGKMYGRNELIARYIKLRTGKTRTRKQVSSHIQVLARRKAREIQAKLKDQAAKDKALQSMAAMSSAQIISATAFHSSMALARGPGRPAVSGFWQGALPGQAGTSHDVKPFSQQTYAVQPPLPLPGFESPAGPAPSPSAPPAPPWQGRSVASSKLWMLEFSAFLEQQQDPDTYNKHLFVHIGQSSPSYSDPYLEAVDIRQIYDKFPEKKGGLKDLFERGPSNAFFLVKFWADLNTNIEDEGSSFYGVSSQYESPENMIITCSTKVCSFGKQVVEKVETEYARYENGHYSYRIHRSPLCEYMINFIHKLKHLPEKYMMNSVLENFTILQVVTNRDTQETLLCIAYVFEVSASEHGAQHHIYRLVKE

T1 sequence (P28347 whole entry, the tested form may be a part): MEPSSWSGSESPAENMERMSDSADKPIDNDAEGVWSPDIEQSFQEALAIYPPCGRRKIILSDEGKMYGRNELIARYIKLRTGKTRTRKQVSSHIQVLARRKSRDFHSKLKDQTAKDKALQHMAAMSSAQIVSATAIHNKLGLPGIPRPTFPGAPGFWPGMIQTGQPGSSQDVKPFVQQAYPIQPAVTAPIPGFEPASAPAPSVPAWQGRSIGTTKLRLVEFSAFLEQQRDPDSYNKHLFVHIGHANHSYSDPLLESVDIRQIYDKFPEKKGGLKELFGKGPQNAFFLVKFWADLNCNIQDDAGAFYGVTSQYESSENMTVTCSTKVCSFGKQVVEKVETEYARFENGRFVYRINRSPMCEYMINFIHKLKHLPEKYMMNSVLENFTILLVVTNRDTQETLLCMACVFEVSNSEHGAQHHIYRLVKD

| Kd [1] | IC50 [2] | Kd [3] | SMILES |
| --- | --- | --- | --- |
| 15 nM | 25 nM | – | CCCC[C@@H]1NC(=O)[C@H](CCCCN)NC(=O)[C@H](CCCNC(=N)N)NC(=O)[C@H](CC(C)C)NC(=O)[C@@H](NC(=O)[C@H](Cc2cccc(Cl)c2)N[C@H](C)[C@@H]2CCCN2C(=O)[C@@H](NC(C)=O)C(C)C)CCSSC[C@@H](C(=O)N[C@@H](CCCCN)C(=O)N2CCC[C@H]2C(=O)N2CCC[C@H]2C(=O)N[C@@H](CCC(=O)O)C(N)=O)NC(=O)[C@@H](Cc2ccccc2)NC(=O)[C@H](CO)NC(=O)[C@H](C)NC(=O)[C@@H]2CCCN2C1=O |
| – | – | 28000 nM | O=C(O)c1cccnc1Nc1cccc(C(F)(F)F)c1 [NIFLUMIC ACID] |
